According to article PMC9102066, “Cloning and Functional Characterization of Dog OCT1 and OCT2: Another Step in Exploring Species Differences in Organic Cation Transporters” (International Journal of Molecular Sciences, 2022):
Where a name gives a salt, the structure may show the parent alone.

What was measured:
[1] = tested on: dog OCT1; test: Uptake in HEK293 cells stably overexpressing dog OCT1; details: for Km at 2 min: dog; for CLint ± SEM, dOCT1: intrinsic clearance = vmax divided by KM for each experiment
Method: The total uptake is shown for the overexpressing and control cells (left hand side). OCT1-mediated uptake (right hand side) was calculated by subtracting the uptake of control cells (pcDNA5) from the uptake of OCT1-overexpressing cells. The means and standard errors of the means are shown for at least three independent experiments.
For generation and characterization, see the Supplementary Methods, Figure S7, and [29, 47]. Cells were cultured in Dulbecco’s Modified Eagle’s Medium (DMEM) supplemented with 10% FBS, 100 U/mL penicillin, and 100 µg/mL streptomycin at 37 °C and 5% CO2. Cells were passaged twice a week.
At 48 h prior to the experiment, 6 × 10^5 cells were seeded per well in 12-well plates pre-coated with poly-D-lysine.
Cellular uptake experiments were performed at 37 °C and pH 7.4 using Hanks’ Buffered Salt Solution (HBSS) supplemented with 10 mM HEPES (referred to as HBSS+ in the following). Cells were washed with 1 mL pre-warmed (37 °C) HBSS+ and uptake was initiated by adding 400 µL of pre-warmed HBSS+ containing the substrate. Uptake was allowed for exactly 2 min and stopped by adding 2 mL ice-cold HBSS+. Cells were washed twice with 2 mL ice-cold HBSS+ then lysed with 80% acetonitrile supplemented with internal standard. The intracellularly accumulated substrate concentrations were measured using LC-MS/MS as described in the following and normalized to the amount of total protein in the samples as measured using the bicinchoninic acid assay.
Intracellular substrate concentrations were quantified using LC-MS/MS. […] The pellet was reconstituted with 200 µL 0.1% formic acid and between 5 and 10 µL was injected into the LC-MS/MS system (Table S2).
An API4000 QTRAP tandem mass spectrometer with ESI interface (AB SCIEX, Darmstadt, Germany) coupled to a Shimadzu Nexera X2 UHPLC system with LC 30AD pumps and SiL 30AC autosampler (Shimadzu, Duisburg, Germany) was used for analysis.
Intrinsic clearance CLint was calculated by dividing vmax by KM for each experiment. Kinetic parameters were compared between OCT1 orthologs using an ANOVA followed by Tukey’s honestly significant difference post hoc comparisons in SPSS Statistics version 28 (SPSS Inc., IBM, Chicago, IL, USA).

[2] = molecular target: T1, human OCT1 (Homo sapiens, UniProt O15245); test: Uptake in HEK293 cells stably overexpressing human OCT1; type: in vitro ADME; details: for CLint ± SEM, hOCT1: intrinsic clearance = vmax divided by KM for each experiment
T1 construct: expressed in transfected cells; host or cells: HEK293 (Flp-In system)
T1 sequence (O15245 1-554): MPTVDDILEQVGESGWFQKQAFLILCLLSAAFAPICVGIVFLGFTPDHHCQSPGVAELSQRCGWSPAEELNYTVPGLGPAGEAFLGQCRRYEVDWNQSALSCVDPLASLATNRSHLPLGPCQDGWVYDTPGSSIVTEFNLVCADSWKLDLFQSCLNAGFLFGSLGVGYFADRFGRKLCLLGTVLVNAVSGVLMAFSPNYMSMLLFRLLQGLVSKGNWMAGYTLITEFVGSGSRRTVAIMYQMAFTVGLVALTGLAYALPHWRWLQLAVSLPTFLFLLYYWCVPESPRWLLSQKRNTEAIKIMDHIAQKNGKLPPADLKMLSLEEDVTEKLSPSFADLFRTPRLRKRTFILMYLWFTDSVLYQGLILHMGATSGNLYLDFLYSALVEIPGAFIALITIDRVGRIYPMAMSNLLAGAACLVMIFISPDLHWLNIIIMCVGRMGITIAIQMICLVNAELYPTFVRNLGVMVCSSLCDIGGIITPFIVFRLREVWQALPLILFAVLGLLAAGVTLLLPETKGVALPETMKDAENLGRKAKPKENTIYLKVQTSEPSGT
Excerpt: (§1) Cells were passaged twice a week.
(§2) Intracellular substrate concentrations were quantified using LC-MS/MS.

[3] = molecular target: T2, mouse OCT1 (Mus musculus, UniProt O08966); test: Uptake in HEK293 cells stably overexpressing mouse OCT1; type: in vitro ADME; details: intrinsic clearance = vmax divided by KM for each experiment
T2 construct: expressed in transfected cells; host or cells: HEK293 (Flp-In system)
T2 sequence (O08966 1-556): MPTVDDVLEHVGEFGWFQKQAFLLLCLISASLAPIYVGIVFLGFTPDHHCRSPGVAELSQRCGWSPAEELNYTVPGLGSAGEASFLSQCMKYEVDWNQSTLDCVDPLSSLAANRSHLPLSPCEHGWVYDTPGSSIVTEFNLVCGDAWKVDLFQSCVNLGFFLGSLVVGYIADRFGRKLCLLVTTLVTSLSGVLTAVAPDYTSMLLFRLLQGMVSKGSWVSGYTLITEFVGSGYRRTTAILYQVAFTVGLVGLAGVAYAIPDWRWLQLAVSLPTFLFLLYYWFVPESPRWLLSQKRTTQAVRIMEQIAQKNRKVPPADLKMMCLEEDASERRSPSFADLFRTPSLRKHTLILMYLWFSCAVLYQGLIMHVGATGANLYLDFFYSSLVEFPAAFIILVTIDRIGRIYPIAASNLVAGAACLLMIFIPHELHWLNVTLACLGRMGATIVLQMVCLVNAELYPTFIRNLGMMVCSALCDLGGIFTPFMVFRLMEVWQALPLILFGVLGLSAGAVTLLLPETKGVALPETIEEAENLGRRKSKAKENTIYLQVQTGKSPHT
Excerpt: as §1, §2

[4] = tested on: dog OCT2; test: Uptake in HEK293 cells stably overexpressing dog OCT2; type: in vitro ADME
Excerpt: as §1, §2

[5] = molecular target: T3, human OCT2 (Homo sapiens, UniProt O15244); test: Uptake in HEK293 cells stably overexpressing human OCT2; type: in vitro ADME; details: intrinsic clearance = vmax divided by KM for each experiment
T3 construct: expressed in transfected cells; host or cells: HEK293 (Flp-In system)
T3 sequence (O15244 1-555): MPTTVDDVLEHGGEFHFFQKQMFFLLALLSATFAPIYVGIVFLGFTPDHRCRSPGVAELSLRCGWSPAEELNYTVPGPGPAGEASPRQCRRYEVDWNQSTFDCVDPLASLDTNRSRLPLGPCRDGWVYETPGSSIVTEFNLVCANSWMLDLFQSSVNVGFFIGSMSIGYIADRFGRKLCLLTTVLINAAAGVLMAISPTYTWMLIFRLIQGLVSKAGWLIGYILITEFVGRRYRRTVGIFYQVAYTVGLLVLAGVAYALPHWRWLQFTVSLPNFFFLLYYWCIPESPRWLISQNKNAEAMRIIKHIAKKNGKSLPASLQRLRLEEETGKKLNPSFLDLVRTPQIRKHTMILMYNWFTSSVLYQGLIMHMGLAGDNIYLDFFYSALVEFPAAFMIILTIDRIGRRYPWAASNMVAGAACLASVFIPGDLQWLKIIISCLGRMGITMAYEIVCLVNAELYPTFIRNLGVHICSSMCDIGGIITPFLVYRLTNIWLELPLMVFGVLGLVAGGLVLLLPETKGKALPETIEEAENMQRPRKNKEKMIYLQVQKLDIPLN
Excerpt: as §1, §2

SMILES	vmax ± SEM, dOCT1 ([1]; OCT1-mediated uptake, HEK293, 2 min, 37 °C, pH 7.4, control cells subtracted)	difference in uptake kinetics between dog and human OCT1, in words ([1]; dog OCT1 versus human OCT1)	fold higher transport capacity by dog than mouse OCT1 ([1]; dog OCT1 versus mouse OCT1) [fold]	fold lower affinity by dog than mouse OCT1 ([1]; dog OCT1 versus mouse OCT1) [fold]	Km at 2 min ([1]; HEK293 cells stably overexpressing dog OCT1, pH 7.4) [µM]	CLint ± SEM, dOCT1 [1]	CLint ± SEM, dOCT1 ([1]; listed as butylscopolamine)	CLint ± SEM, hOCT1 [2]	CLint ± SEM, mOCT1 [3]	fold lower transport by dog OCT2 compared to human OCT2 ([4]; dog OCT2 versus human OCT2) [fold]	uptake by dog OCT2 cells compared to control cells, in words ([4]; especially at low concentrations, data could not be fitted to the Michaelis–Menten equation)	CLint ± SEM, hOCT2 [5]	fold lower affinity (higher KM) by dog OCT1 than human OCT1 ([1]; dog OCT1 versus human OCT1) [fold]	Km at 2 min ([1]; pH 7.4) [µM]	CLint ± SEM, dOCT1 ([1]; listed as fenoterol)	fold higher affinity (human OCT1 relative to dog OCT1, as worded in the discussion) ([2]; discussion wording, direction not spelled out) [fold]	CLint ± SEM, hOCT1 ([2]; listed as fenoterol)	CLint ± SEM, mOCT1 ([3]; listed as fenoterol)
CCCC[N+]1(C)[C@@H]2C[C@@H](OC(=O)[C@H](CO)c3ccccc3)C[C@H]1[C@@H]1O[C@@H]12 (stereo partly shown) [Butylscopolamine, butylscopolamine bromide]	1383 ± 112 pmol × min^−1 × mg Protein^−1	no significant differences	1.8	2.9	18.7 ± 3.32	80.5 ± 12.3 µL × min^−1 × mg Protein^−1	122 µL × min^−1 × mg Protein^−1	84.4 ± 6.76 µL × min^−1 × mg Protein^−1	131 ± 25.6 µL × min^−1 × mg Protein^−1	10	only a slight increase	81.6 ± 2.16 µL × min^−1 × mg Protein^−1	–	–	–	–	–	–
CC(Cc1ccc(O)cc1)NCC(O)c1cc(O)cc(O)c1 (stereo not shown) [Fenoterol, Fenoterol hydrochloride]	–	–	–	–	–	80.7 ± 7.76 µL × min^−1 × mg Protein^−1	–	88.3 ± 3.85 µL × min^−1 × mg Protein^−1	88.5 ± 15.5 µL × min^−1 × mg Protein^−1	–	–	28.0 ± 0.95 µL × min^−1 × mg Protein^−1	14.3	16.8 ± 1.09	80.7 µL × min^−1 × mg Protein^−1	14.3	88.3 µL × min^−1 × mg Protein^−1	88.5 µL × min^−1 × mg Protein^−1
